# Experimental data from US12600709B2, “Nonpeptide somatostatin type 5 receptor agonists and uses thereof” (Crinetics Pharmaceuticals, Inc., priority 2019, dated 2026).
# Read-outs that look alike come from different tables or passages of the source.
# Columns and labels:
# [1] = molecular target: T1, human somatostatin receptor subtype 5 (Homo sapiens, UniProt P35346); experiment: cAMP assay for SST5R (inhibition of cAMP in CHO-K1 cells); assay type: cell-based; details: for EC50: inhibition of cAMP via human SST5 receptor, read-out: SST5 potency; for Fold selectivity for SST5 vs SST2: class symbols, SST5 receptor over SST2 receptor
# T1 construct: expressed in transfected cells
# Summary of the method: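 CHO-K1 cells stably expressing human SSTR5 were treated 20 min at 37 °C with compounds plus 1.6 μM NKH477 in HBSS, 0.5 mM HEPES pH 7.4, 0.1% BSA, 0.2 mM IBMX. Lysate cAMP measured by HTRF against a standard curve; EC50 from cAMP-versus-concentration plots.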
# [2] = molecular target: T2, human somatostatin receptor subtype 2 (Homo sapiens, UniProt P30874); experiment: cAMP assay for SST2R (inhibition of cAMP in CHO-K1 cells); assay type: cell-based; details: Table B; inhibition of cAMP via human SST2 receptor; read-out: SST2 potency
# T2 construct: expressed in transfected cells
# Description: General overview: All five SSTR subtypes are Gi coupled G-protein coupled receptors (GPCRs) that lead to decreases in intracellular cyclic AMP (cAMP) when activated by an agonist. Therefore, measurement of intracellular cAMP levels can be used to assess whether compounds of the invention are agonists of SSTR subtypes (John Kelly, Troy Stevens, W. Joseph Thompson, and Roland Seifert, Current Protocols in Pharmacology, 2005, 2.2.1-2.2). One example of an intracellular cAMP assay is described below.
# cAMP Assay Protocol for SST2R:
# Four days prior to the assay, 5,000 Chinese hamster ovary cells (CHO-K1, ATCC #CCL-61) stably expressing the human somatostatin receptor subtype 2 are plated in each well of a 96-well tissue culture-treated plate in Ham's F12 growth media (ThermoFisher #10-080-CM) supplemented with 10% donor bovine serum (Gemini Bio-Products #100-506), 100 U/mL penicillin; 100 μg/mL streptomycin; 2 mM L-glutamine (Gemini Bio-Products #400-110) and 0.2 mg/mL hygromycin B (GoldBio #31282-04-9). The cells are cultured at 37° C., 5% CO2 and 95% humidity. On the day of the assay, the media is aspirated and the cells are treated with 50 μL of 1.6 μM NKH477 (Sigma #N3290) plus various dilutions of compounds of the invention in assay buffer [1× Hank's Balanced Salt Solution (ThermoFisher #SH3058802), 0.5 mM HEPES pH 7.4, 0.1% bovine serum albumin, 0.2 mM 3-Isobutyl-1-methylxanthine (IBMX, VWR #200002-790)]. The cells are incubated for 20 minutes at 37° C. […] The cells are treated with 50 μL of lysis buffer (HRTF cAMP kit, Cisbio). The lysate is transferred to 384-well plates and cAMP detection and visualization antibodies are added and incubated for 1-24 hours at room temperature. The time-resolved fluorescent signal is read with a Tecan M1000Pro multiplate reader. The intracellular cAMP concentrations are calculated by regression to a standard curve and are plotted vs. the concentration of the compounds of the invention and the EC50 of the compounds are calculated using standard methods. All data manipulations are in GraphPad Prism v6 or v7.
# T2 sequence (P30874 whole entry): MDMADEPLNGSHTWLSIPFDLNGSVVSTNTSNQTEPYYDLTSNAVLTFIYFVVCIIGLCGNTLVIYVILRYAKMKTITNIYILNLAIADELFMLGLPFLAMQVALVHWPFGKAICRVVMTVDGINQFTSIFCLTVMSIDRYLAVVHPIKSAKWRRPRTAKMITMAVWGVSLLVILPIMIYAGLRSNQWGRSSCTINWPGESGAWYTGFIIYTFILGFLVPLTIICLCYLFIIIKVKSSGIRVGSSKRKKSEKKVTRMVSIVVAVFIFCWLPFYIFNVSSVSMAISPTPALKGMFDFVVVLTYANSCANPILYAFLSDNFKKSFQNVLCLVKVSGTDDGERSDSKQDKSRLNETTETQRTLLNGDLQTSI
# T1 sequence (P35346 whole entry): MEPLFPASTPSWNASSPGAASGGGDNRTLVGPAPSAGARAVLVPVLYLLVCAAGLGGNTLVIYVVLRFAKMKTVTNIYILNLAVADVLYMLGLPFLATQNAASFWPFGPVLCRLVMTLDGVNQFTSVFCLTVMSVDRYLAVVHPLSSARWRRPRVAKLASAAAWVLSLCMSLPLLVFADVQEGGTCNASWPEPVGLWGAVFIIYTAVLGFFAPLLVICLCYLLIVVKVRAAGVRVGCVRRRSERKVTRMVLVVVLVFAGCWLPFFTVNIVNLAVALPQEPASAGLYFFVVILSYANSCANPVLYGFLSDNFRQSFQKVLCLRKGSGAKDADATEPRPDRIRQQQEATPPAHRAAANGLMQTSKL
Compound,EC50 ([1]; Table A) [nM],Fold selectivity for SST5 vs SST2 ([1]; Table B),EC50 ([1]; Table B) [nM],EC50 [2] [nM]
"Cc1cc(C)cc(-c2cncc(C(=O)NC3CCC(F)(F)CC3)c2N2CC[C@](C)(N)C2)c1 [1-12, 4-[(3S)-3-amino-3-methylpyrrolidin-1-yl]-N-(4,4-difluorocyclohexyl)-5-(3,5-dimethylphenyl)pyridine-3-carboxamide]",< 10,+++ (+++=>500),< 10,100 to 1000
"Cc1cc(F)cc(-c2cncc(C(=O)NC3CCC(F)(F)CC3)c2N2CC[C@](C)(N)C2)c1 [1-13, 4-[(3S)-3-amino-3-methylpyrrolidin-1-yl]-N-(4,4-difluorocyclohexyl)-5-(3-fluoro-5-methylphenyl)pyridine-3-carboxamide]",< 10,+++ (+++=>500),< 10,100 to 1000
"C[C@]1(N)CCN(c2c(C(=O)NC3CCC(F)(F)CC3)cncc2-c2cc(F)cc(F)c2)C1 [1-16, 4-[(3S)-3-amino-3-methylpyrrolidin-1-yl]-N-(4,4-difluorocyclohexyl)-5-(3,5-difluorophenyl)pyridine-3-carboxamide]",< 10,+++ (+++=>500),< 10,100 to 1000
"Cc1cc(F)cc(-c2cncc(C(=O)NC3CCc4ccccc43)c2N2CC[C@](C)(N)C2)c1 (stereo partly drawn) [1-17, 4-[(3S)-3-amino-3-methylpyrrolidin-1-yl]-N-(2,3-dihydro-1H-inden-1-yl)-5-(3-fluoro-5-methylphenyl)pyridine-3-carboxamide]",< 10,++ (++=100 to 499),< 10,100 to 1000
"CCC1(NC(=O)c2cncc(-c3cc(C)cc(F)c3)c2N2CC[C@](C)(N)C2)CCC1 [1-19, 4-[(3S)-3-amino-3-methylpyrrolidin-1-yl]-N-(1-ethylcyclobutyl)-5-(3-fluoro-5-methylphenyl)pyridine-3-carboxamide]",< 10,++ (++=100 to 499),< 10,100 to 1000
"C[C@]1(N)CCN(c2c(C(=O)NC3CCC(F)(F)CC3)cncc2-c2cc(F)c(F)c(F)c2)C1 [1-20, 4-[(3S)-3-amino-3-methylpyrrolidin-1-yl]-N-(4,4-difluorocyclohexyl)-5-(3,4,5-trifluorophenyl)pyridine-3-carboxamide]",< 10,+++ (+++=>500),< 10,100 to 1000

# The remaining lines, values ahead:
EC50 ([1]; Table A) [nM],Fold selectivity for SST5 vs SST2 ([1]; Table B),EC50 ([1]; Table B) [nM],EC50 [2] [nM],Compound
< 10,++ (++=100 to 499),< 10,10 to 100,"C[C@]1(N)CCN(c2c(C(=O)NC34CC(C3)C4)cncc2-c2cc(F)cc(F)c2)C1 [1-21, 4-[(3S)-3-amino-3-methylpyrrolidin-1-yl]-N-{bicyclo[1.1.1]pentan-1-yl}-5-(3,5-difluorophenyl)pyridine-3-carboxamide]"
< 10,++ (++=100 to 499),< 10,100 to 1000,"CC1(C)CC(NC(=O)c2cncc(-c3cc(F)cc(F)c3)c2N2CC[C@](C)(N)C2)C1 [1-22, 4-[(3S)-3-amino-3-methylpyrrolidin-1-yl]-5-(3,5-difluorophenyl)-N-(3,3-dimethylcyclobutyl)pyridine-3-carboxamide]"
< 10,+++ (+++=>500),< 10,10 to 100,"Cc1cc(F)cc(-c2cncc(C(=O)NC(C)C3CC3)c2N2CC[C@](C)(N)C2)c1 (stereo partly drawn) [1-24, 4-[(3S)-3-amino-3-methylpyrrolidin-1-yl]-N-(1-cyclopropylethyl)-5-(3-fluoro-5-methylphenyl)pyridine-3-carboxamide]"
< 10,+++ (+++=>500),< 10,100 to 1000,"Cc1cc(F)cc(-c2cncc(C(=O)NC(C3CC3)C3CC3)c2N2CC[C@](C)(N)C2)c1 [1-25, 4-[(3S)-3-amino-3-methylpyrrolidin-1-yl]-N-(dicyclopropylmethyl)-5-(3-fluoro-5-methylphenyl)pyridine-3-carboxamide]"
